This experiment concerns primary hippocampal neurons overexpressing P301S tau (Tau−/+) and littermate controls (Tau−/−). The experiment is described as follows: mEPSC recording in primary hippocampal neurons from PS19 transgenic mice expressing P301S tau. Format: cell-based, mouse. The note with it: 10 μM; for average amplitude of mEPSC responses in Tau−/+ versus Tau−/− neurons: 3 days in culture media; for cumulative curve of mEPSC amplitudes, Tau−/+ compared with Tau−/−: Mann-Whitney U test. As to the method:
For these studies, PS19 transgenic mice expressing P301S mutant tau, one of the most used models of FTDP-17 were used (Feinstein S. Faculty Opinions recommendation of Synapse loss and microglial activation precede tangles in a P301S tauopathy mouse model. Faculty Opinions—Post-Publication Peer Review of the Biomedical Literature. 2007; and Takeuchi H, et al., PLoS One., 2011, 6, e21050). To detect functional deficits, primary hippocampal neurons were cultured from heterozygous transgenic mice overexpressing P301S tau (Feinstein S. Faculty Opinions recommendation of Synapse loss and microglial activation precede tangles in a P301S tauopathy mouse model. Faculty Opinions—Post-Publication Peer Review of the Biomedical Literature. 2007; and Takeuchi H, et al., PLoS One., 2011, 6, e21050) and littermate controls, (denoted Tau−/+ and Tau−/− respectively in FIG. 3), and recorded miniature excitatory synaptic currents (mEPSCs).
Briefly, a 22 mm diameter glass coverslip (0.09 mm thickness) was silicone-sealant-fastened to the bottom of a 35 mm culture dish with a bored hole of 20 mm in diameter and sterilized as described by Smith B R, et al., Acta Neuropathologica Communications, 2019, 7(1), 124. Coverslips were coated with poly-D-lysine. Hippocampi were dissected from neonatal Sprague-Dawley timed-pregnancy rats (Envigo) or appropriate transgenic mice and control littermates (see main text) at post-natal day 0-1. Hippocampi were enzymatically digested in Earle's Balanced Salt Solution (EBSS) supplemented with 1% glucose and cysteine-activated papain. Digestion was blocked with dilute BSA (bovine serum albumin) and chicken ovomucoid, and cells were rinsed in fresh EBSS and plated in plating medium (minimal essential medium with Earle's salts, 10% fetal bovine serum, 5% horse serum, 2 mM glutamine, 10 mM sodium pyruvate, 0.6% glucose, 100 U/ml penicillin and […] streptomycin) at 1.0×10^6 cells/dish. After 18 h cell adherence was established. Cells were then grown in a neurobasal medium (a 1:5 mixture of NbActiv4 to NbActiv1; BrainBits LLC) and incubated at 37° C. in a 5% CO2 biological incubator.
Miniature excitatory postsynaptic currents (mEPSCs) were recorded from cultured dissociated mouse hippocampal neurons at 17-21 DIV with a glass pipette (resistance ˜5 MΩ) at holding potentials of −65 mV on an Axopatch 200B amplifier (output gain=0.5; filtered at 1 kHz) as we previously described (Miller E C, et al., Eur J Neurosci., 2014, 39, 214-224). Input and series resistances were assessed and found to have no significant difference before and after recording time (5-20 mins). Recording sweeps lasted 200 ms and were sampled for every 1 s (pClamp, v10, RRID: SCR_011323). Neurons were bathed in bubble-oxygenated artificial cerebrospinal fluid (ACSF) at 23° C. with 100 μM APV (NMDA receptor antagonist), 1 μM TTX (sodium channel blocker), and 100 μM picrotoxin (GABAa receptor antagonist). Passive oxygen perfusion was established with medical-grade 95% O2-5% CO2. ACSF contained (in mM) 119 NaCl, 2.5 KCl, 5.0 CaCl2), 2.5 MgCl2, 26.2 NaHCO3, 1 NaH2PO4, and 11 D-glucose. The internal solution of the glass pipettes contained (in mM) 100 cesium gluconate, 0.2 EGTA, 0.5 MgCl2, 2 ATP, 0.3 GTP, and 40 HEPES. The pH of the internal solution was normalized to 7.2 with cesium hydroxide and diluted to a trace osmotic deficit in comparison to ACSF (˜300 mOsm). All analysis of recordings was performed using an automated detection software suit (Clampfit, 11.0.3, Molecular Devices, San Jose, CA, USA). Minimum analysis parameters were set at greater than 1 min stable recording time and events with amplitudes greater than 3 pA and smaller than 40 pA were included. A mEPSC event was identified by using a template which included a distinct fast-rising depolarization and slow-decaying repolarization. […]

Structures are written as SMILES.

For `Cc1ccc2c(c1)CCN(C(=O)[C@@H](NC(=O)[C@H](CCCC(=O)O)NC(=O)C1Cc3ccccc3N1)C(C)C)[C@@H]2C(=O)N[C@H](C#N)CC(=O)O` (stereo partly drawn) [Compound 1, (8)-6-(((S)-1-((8)-1-(((S)-2-carboxy-1-cyanoethyl)carbamoyl)-6-methyl-3,4-dihydroisoquinolin-2(1H)-yl)-3-methyl-1-oxobutan-2-yl)amino)-5-((S)-indoline-2-carboxamido)-6-oxohexanoic acid], the “average amplitude of mEPSC responses in Tau−/+ versus Tau−/− neurons” value is recorded as “do not differ significantly”. Where the note is “3 days”, the “average amplitudes of mEPSC responses of Tau−/+ neurons versus those treated with Compound 30a or 30b” value is reported as “significantly larger” and the “cumulative curve of mEPSC amplitudes, Tau−/+ compared with Tau−/−” value (from here on “cumulative curve … compared with Tau−/−”) is “not significantly shifted”.
Turning to `CC(=O)N[C@H](C(=O)N[C@@H](CC(=O)O)C(=O)N[C@H](C(=O)N1CCc2cc(C)ccc2[C@H]1C(=O)N[C@H](C=O)CC(=O)O)C(C)C)C(C)C` [Compound 30b, (S)-3-((S)-2-acetamido-3-methylbutanamido)-4-(((S)-1-((S)-1-(((S)-1-carboxy-3-oxopropan-2-yl)carbamoyl)-6-methyl-3,4-dihydroisoquinolin-2(1H)-yl)-3-methyl-1-oxobutan-2-yl)amino)-4-oxobutanoic acid, reference compound], the “cumulative curve … compared with Tau−/−” value (3 days) is recorded as “shifted to the left but less markedly”.
Regarding `CC(=O)N[C@H](C(=O)NC(CC(=O)O)C(=O)N[C@H](C(=O)N1CCc2cc(C)ccc2C1C(=O)N[C@H](C=O)CC(=O)O)C(C)C)C(C)C` (stereo in doubt) [Compound 30a, (R)-3-((S)-2-acetamido-3-methylbutanamido)-4-(((S)-1-((S)-1-(((S)-1-carboxy-3-oxopropan-2-yl)carbamoyl)-6-methyl-3,4-dihydroisoquinolin-2(1H)-yl)-3-methyl-1-oxobutan-2-yl)amino)-4-oxobutanoic acid, reference compound], the “average amplitude of mEPSC responses in Tau−/+ versus Tau−/− neurons” value is “significantly smaller”. For the same compound, the “cumulative curve … compared with Tau−/−” value (3 days) is “shifted to the left”.

These data come from patent publication US20250188123A1, “PROTEASE INHIBITORS” (Regents of the University of Minnesota, priority 2022, published 2025).
